Test results reported in patent US6787551B2, “Thiazolidinedione derivatives and pharmaceutical composition comprising the same” (Chong Kun Dang Pharmaceutical Corporation, priority 2002, dated 2004).

How the values were obtained:
3T3-L1 cells = assay: Triglyceride accumulation assay; format: cell-based; settings: 4 days with compound, concentration giving 50% of maximum enhancement of rosiglitazone activation
Experimental: 2) Triglyceride accumulation assay (in 3T3-L1 cells)
Undifferentiated adipocyte 3T3-L1 cells were inoculated in a 24-well plate and cultivated in a CO2 incubator at 37° C. To induce differentiation of the undifferentiated adipocytes, the cells were then incubated in a differentiation medium for 48 hours. After adding a certain concentration of each of the test compounds to the differentiation medium, the cells were again incubated for 4 days. Then, the final cell sample was placed into 200 μl of 2-propanol. The amount of triglyceride in the cells were measured by Triglyceride Kit [YEONGDONG PHARMACEUTICAL CO. LTD., Korea] commercially available.

[1] = test system: mice with diabetes (KK/Ay); assay: Blood glucose- and blood lipid-lowering action in mice with diabetes; format: in vivo; settings: male KK/Ay mice, daily oral administration for 5 days; for Blood glucose (ED25): dose reducing blood glucose by 25%; for Triglyceride (ED25): dose reducing triglyceride by 25%
Experimental: Male mice with diabetes (KK/Ay: 10 weeks old, 5 animals/group) were housed and given free access to water and food. The animals received a daily oral administration of the test compounds for 5 days. After the last dose, a blood sample was drawn via the orbital sinus.
The plasma was analyzed for blood glucose content using the Glucose-E kit (YEONGDONG PHARMACEUTICAL CO. LTD., Korea), and for triglyceride content using the Triglyceride kit (YEONGDONG PHARMACEUTICAL CO. LTD., Korea).

[2] = test system: primary cultured rat hepatocytes
Experimental: Hepatocytes isolated from rat were inoculated in a collagen-coated 24 well plate and was incubated in a CO2 incubator at 37° C. for 24 hours. Then, a certain concentration of each of the test compounds was added, and the cells were again incubated for 24 hours. The cells were then incubated in a 0.4% neutral red containing medium for 4 hours and washed once with phosphate buffer. 0.5 ml of a solution of 1% acetic acid-50% ethanol was added to the cells, which were let stand. 200 ul of the cell sample was taken and absorbance was measured at 570 nm. The cytotoxicity assay performed on hepatocytes was measured as 25% toxic concentration (TC25, uM). Then, the safety index, i.e. the TC25 value in the cytotoxicity assay in hepatocyte/the EC50 value in the triglyceride accumulation assay, was calculated.

[3] = test system: differentiated 3T3-L1 cell; assay: 2-Deoxy-D-[2,6-3H] glucose uptake assay; format: cell-based; settings: differentiated 3T3-L1 cells, 24 h with compound, 0.5 nM insulin; concentration giving 50% of maximum enhancement of insulin activation; read-out: 2-deoxyglucose uptake (EC50 nM)
Experimental: 1) 2-Deoxy-D-[2,6-3H] glucose uptake assay (in differentiated 3T3-L1 cell)
Undifferentiated adipocyte 3T3-L1 cells were inoculated in a 24-well plate and cultivated in a CO2 incubator at 37° C. To induce differentiation of the undifferentiated adipocytes, the cells were then incubated in a differentiation medium. After adding a certain concentration of each of the test compounds to the medium, the cells were again incubated for 24 hours. After removing the medium, the cells were washed with phosphate buffer, and 0.5 nM of insulin in phosphate buffer was added to the washed cells, followed by incubation for 40 minutes. Then, 0.5 uCi of 2-deoxy-D-[2,6-3H] glucose per well was again added to the cells, which were let stand for 4 minutes. Then, the cells were washed with phosphate buffer, and cell lysis buffer was added, so as to dissolve the cell membranes. The cell sample was placed into a liquid scintillation cocktail solution. The radioactivity of the sample was counted by a liquid scintillation counter.

| Substance | EC50 (3T3-L1 cells) | Blood glucose (ED25) [1] | Triglyceride (ED25) [1] | Cytotoxicity in hepatocyte (TC25 uM) [2] | Safety index (TC25 nM/EC50 nM) [2] | EC50 [3] |
| --- | --- | --- | --- | --- | --- | --- |
| 5-(4-[2(N-methyl-N-(6-(4-anilinyl)pyrimidinyl)amino)ethoxy]benzyl)-2,4-thiazolidinedione [Ex. 21] | 7.5 nM | 2.6 mg/kg | 6.2 mg/kg | 81 µM | 10800 | 12.8 nM |
| 5-(4-[2(N-methyl-N-(6-(4-thiophenoxy)pyrimidinyl)amino)ethoxy]benzyl)-2,4-thiazolidinedione [Ex. 32] | 3.2 nM | 1.5 mg/kg | 12.3 mg/kg | 89 µM | 27813 | 5.9 nM |
| 5-(4-[2-(N-methyl-N-(2-(4-anilinyl)pyridinyl)amino)ethoxy]benzyl)-2,4-thiazolidinedione [Ex. 38] | 5.5 nM | 1.5 mg/kg | 7.8 mg/kg | 71 µM | 12909 | 10.5 nM |
| 5-(4-[2-(N-methyl-N-(2-(4-anilinyl)pyridinyl)amino)ethoxy]benzylidene)-2,4-thiazolidinedione [Ex. 19] | 20.1 nM | 3.8 mg/kg | 15.6 mg/kg | 81 µM | 4030 | 48.2 nM |
| 5-(4-[2-(N-methyl-N-(2-(4-thiophenoxy)pyridinyl)amino)ethoxy]benzyl)-2,4-thiazolidinedione [Ex. 37] | 1.2 nM | 0.22 mg/kg | 1.4 mg/kg | 95 µM | 79167 | 2.8 nM |
